Patent publication US11917959B2, “Multi-ear system to enhance monocot plant yield” (Monsanto Technology LLC, priority 2015, dated 2024)

Test system: haploid maize lines (Germplasm A, Germplasm B)
Test: Co-dominant ear induction by PBZ soil drench in colchicine-doubled haploid maize (Example 1)
Assay type: in vivo
Description: V1-V3 seedlings of two unique F1 hybrid-derived haploid maize lines, derived from: female heterotic group (Germplasm A) or male heterotic group (Germplasm B), were subjected to a bulk colchicine-based chromosome doubling treatment by removing the seedlings from soil or growth media at the V1-V3 growth stage and aligning their stems and wrapping them together along with several wooden rods into bundle a held together by a strip of aluminum foil (approximate foil strip dimensions were 6 in×18 in). The bundled plants were submerged in plant treatment solution comprising 1250 ppm of colchicine in a centrifuge container and then the entire sample was centrifuged at 50 g for 3 min while the shoot apical meristems (SAMs) remained submerged in the plant treatment agent solution.
Following the first centrifugation, the plant treatment solution was decanted and the seedlings subjected to an addition centrifugation at 335 g for 3 min. During the second centrifugation, the rod-wrap bundle supported the seedlings and prevented the SAMs from contacting the reserve treatment agent that was not absorbed by the plant during application of the centrifugal force.
Following the second centrifugation, the plants were removed from the centrifugation container and the rod-wrap bundle and rinsed with water to remove any remaining colchicine solution, and then recovered and tended in a light, humidity, and temperature-controlled greenhouse for several days before being transplanted to a nursery greenhouse. These centrifuge-based treatment methods are described in more detail in International application number PCT/US2015/028955, which is incorporated by reference herein in its entirety, however, standard doubling treatments can also be applied to any of the haploid doubling steps referred to herein.
Following colchicine doubling treatment, 15-20 plants from each germplasm were planted in pots at two different densities; either as single plants per pot (singles), or as two plants per pot (pairs).
Next, each plant received one of two different doses of PBZ, either 50 mL (low dose) or 60 mL (high dose) of a 2.5% PBZ solution (v/v; 0.4% of active ingredient) in water. These two different doses were applied by soil drench at either the V7 or V8 growth stage, which occurred a total of 23 or 26 days after the seedlings had been subjected to chromosome doubling treatment, respectively. A control group of plants received no treatment solution but were otherwise treated exactly as the experimental groups planted as singles. When pollen shed began at the tassels, the average number of silk-producing ears (i.e. co-dominant ears) were counted for each dosage, germplasm, and treatment time and the results summarized in Table. 1.

## CC(C)(C)[C@@H](O)[C@@H](Cc1ccc(Cl)cc1)n1cncn1 (relative stereo) [PBZ, (±)-(R*, R*)-beta-((4-chlorophenyl)methyl)-alpha-(1,1,-dimethylethyl)-1H-1,2,4,-triazole-1-ethanol]
V7, Germplasm A, pairs, high dose (60 mL 2.5% PBZ)
  number of co-dominant ears formed per plant: 3.4
V7, Germplasm A, pairs, low dose (50 mL 2.5% PBZ)
  number of co-dominant ears formed per plant: 3
V7, Germplasm A, singles, high dose (60 mL 2.5% PBZ)
  number of co-dominant ears formed per plant: 3.9
V7, Germplasm A, singles, low dose (50 mL 2.5% PBZ)
  number of co-dominant ears formed per plant: 3.4
V7, Germplasm B, pairs, high dose (60 mL 2.5% PBZ)
  number of co-dominant ears formed per plant: 1.5
V7, Germplasm B, pairs, low dose (50 mL 2.5% PBZ)
  number of co-dominant ears formed per plant: 1.5
V7, Germplasm B, singles, high dose (60 mL 2.5% PBZ)
  number of co-dominant ears formed per plant: 3.3
V7, Germplasm B, singles, low dose (50 mL 2.5% PBZ)
  number of co-dominant ears formed per plant: 2.7
V8, Germplasm A, pairs, high dose (60 mL 2.5% PBZ)
  number of co-dominant ears formed per plant: 2.2
V8, Germplasm A, pairs, low dose (50 mL 2.5% PBZ)
  number of co-dominant ears formed per plant: 2.3
V8, Germplasm A, singles, high dose (60 mL 2.5% PBZ)
  number of co-dominant ears formed per plant: 3.5
V8, Germplasm A, singles, low dose (50 mL 2.5% PBZ)
  number of co-dominant ears formed per plant: 2.3
V8, Germplasm B, pairs, high dose (60 mL 2.5% PBZ)
  number of co-dominant ears formed per plant: 1.5
V8, Germplasm B, pairs, low dose (50 mL 2.5% PBZ)
  number of co-dominant ears formed per plant: 1.5
V8, Germplasm B, singles, high dose (60 mL 2.5% PBZ)
  number of co-dominant ears formed per plant: 2.2
V8, Germplasm B, singles, low dose (50 mL 2.5% PBZ)
  number of co-dominant ears formed per plant: 2.3
All plants
  average EP (ear per plant), high dosage greater than low dosage by: 0.31
Singles only
  average EP, high-dose higher than low-dose by: 0.55
singles, low dose
  minimum increase over control plants: ≥ 1.2 EP
